Results from PubChem BioAssay AID250 (DTP/NCI, 2004).
“And” between values parts separate entries of the source, which are not always exact repeats. Equal values may be shown once. Inconclusive results and toxic doses are left out.

Tested on: BDF1 mice, L1210 leukemia sc, survival T/C
Experiment: NCI In Vivo Anticancer Drug Screen. Data for tumor model L1210 Leukemia (subcutaneous) in B6D2F1 (BDF1) mice
Conditions: higher = longer survival
Summary of the method: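 Mice carrying transplanted tumors received test compounds, and survival or tumor size was measured. Values are the treated-group measurement (T) divided by that of the vehicle-treated control group (C).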

CN(Cc1cnc2nc(N)nc(N)c2n1)c1ccc(C(=O)N[C@@H](CCC(=O)O)C(=O)O)cc1
T/C (endpoint: mean survival time, dose: 0.65 mg/kg/injection, schedule: Q01DX009 (sc), vehicle: other): 166 % of control and 168 % of control | T/C (endpoint: mean survival time, dose: 1.0 mg/kg/injection, schedule: Q01DX015 (ip), vehicle: other): 158 % of control and 163 % of control and 171 % of control | T/C (endpoint: mean survival time, dose: 1.08 mg/kg/injection, schedule: Q01DX009 (sc), vehicle: other): 158 % of control | T/C (endpoint: mean survival time, dose: 1.8 mg/kg/injection, schedule: Q01DX009 (sc), vehicle: other): 171 % of control | T/C (endpoint: mean survival time, dose: 2.0 mg/kg/injection, schedule: Q01DX009 (ip), vehicle: sodium bicarbonate): 154 % of control and 166 % of control | T/C (endpoint: mean survival time, dose: 4.0 mg/kg/injection, schedule: Q01DX009 (ip), vehicle: sodium bicarbonate): 88 % of control | T/C (endpoint: mean survival time, dose: 20.0 mg/kg/injection, schedule: Q04DX003 (ip), vehicle: sodium bicarbonate): 158 % of control | T/C (endpoint: mean survival time, dose: 45.0 mg/kg/injection, schedule: Q04DX004 (ip), vehicle: other): 99 % of control and 101 % of control | T/C (endpoint: mean survival time, dose: 60.0 mg/kg/injection, schedule: Q04DX004 (ip), vehicle: other): 90 % of control and 105 % of control and 124 % of control | T/C (endpoint: mean survival time, dose: 80.0 mg/kg/injection, schedule: Q04DX003 (ip), vehicle: sodium bicarbonate): 91 % of control | T/C (endpoint: mean survival time, dose: 200.0 mg/kg/injection, schedule: Q01DX001 (ip), vehicle: other): 91 % of control and 111 % of control and 116 % of control | T/C (endpoint: median survival time, dose: 0.01 mg/kg/injection, schedule: Q## X Z (sc), vehicle: other): 100 % of control | T/C (endpoint: median survival time, dose: 0.02 mg/kg/injection, schedule: Q## X Z (sc), vehicle: other): 100 % of control | T/C (endpoint: median survival time, dose: 0.03 mg/kg/injection, schedule: Q## X Z (sc), vehicle: other): 105 % of control | T/C (endpoint: median survival time, dose: 0.05 mg/kg/injection, schedule: Q#A X Z (sc), vehicle: other): 105 % of control | T/C (endpoint: median survival time, dose: 0.14 mg/kg/injection, schedule: Q#A X Z (sc), vehicle: other): 122 % of control | T/C (endpoint: median survival time, dose: 0.17 mg/kg/injection, schedule: Q01DX Z (iv), vehicle: other): 112 % of control | T/C (endpoint: median survival time, dose: 0.23 mg/kg/injection, schedule: Q01DX Z (ip), vehicle: other): 100 % of control | T/C (endpoint: median survival time, dose: 0.23 mg/kg/injection, schedule: Q01DX Z (sc), vehicle: sodium bicarbonate): 109 % of control | T/C (endpoint: median survival time, dose: 0.24 mg/kg/injection, schedule: Q01DX Z (sc), vehicle: other): 104 % of control and 108 % of control | T/C (endpoint: median survival time, dose: 0.3 mg/kg/injection, schedule: Q01DX Z (sc), vehicle: other): 112 % of control | T/C (endpoint: median survival time, dose: 0.39 mg/kg/injection, schedule: Q01DX006 (sc), vehicle: other): 110 % of control | T/C (endpoint: median survival time, dose: 0.39 mg/kg/injection, schedule: Q01DX008 (sc), vehicle: other): 110 % of control | T/C (endpoint: median survival time, dose: 0.39 mg/kg/injection, schedule: Q01DX009 (sc), vehicle: other): 122 % of control | T/C (endpoint: median survival time, dose: 0.39 mg/kg/injection, schedule: Q01DX Z (ip), vehicle: other): 105 % of control | T/C (endpoint: median survival time, dose: 0.47 mg/kg/injection, schedule: Q01DX Z (iv), vehicle: other): 112 % of control | T/C (endpoint: median survival time, dose: 0.47 mg/kg/injection, schedule: Q01DX Z (oral), vehicle: other): 112 % of control | T/C (endpoint: median survival time, dose: 0.65 mg/kg/injection, schedule: Q01DX008 (sc), vehicle: other): 155 % of control and 166 % of control | T/C (endpoint: median survival time, dose: 0.65 mg/kg/injection, schedule: Q01DX009 (sc), vehicle: other): 169 % of control | T/C (endpoint: median survival time, dose: 0.65 mg/kg/injection, schedule: Q01DX017 (sc), vehicle: sodium bicarbonate): 166 % of control | T/C (endpoint: median survival time, dose: 0.65 mg/kg/injection, schedule: Q01DX Z (oral), vehicle: other): 90 % of control | T/C (endpoint: median survival time, dose: 0.65 mg/kg/injection, schedule: Q02DX009 (sc), vehicle: other): 111 % of control | T/C (endpoint: median survival time, dose: 0.65 mg/kg/injection, schedule: Q02DX Z (sc), vehicle: other): 111 % of control | T/C (endpoint: median survival time, dose: 1.08 mg/kg/injection, schedule: Q01DX006 (sc), vehicle: other): 150 % of control | T/C (endpoint: median survival time, dose: 1.08 mg/kg/injection, schedule: Q01DX008 (sc), vehicle: other): 160 % of control and 166 % of control | T/C (endpoint: median survival time, dose: 1.08 mg/kg/injection, schedule: Q01DX009 (ip), vehicle: sodium bicarbonate): 156 % of control and 166 % of control and 168 % of control | T/C (endpoint: median survival time, dose: 1.08 mg/kg/injection, schedule: Q01DX017 (sc), vehicle: sodium bicarbonate): 158 % of control | T/C (endpoint: median survival time, dose: 1.08 mg/kg/injection, schedule: Q01DX Z (ip), vehicle: other): 160 % of control | T/C (endpoint: median survival time, dose: 1.08 mg/kg/injection, schedule: Q01DX Z (oral), vehicle: other): 110 % of control | T/C (endpoint: median survival time, dose: 1.08 mg/kg/injection, schedule: Q02DX009 (sc), vehicle: other): 119 % of control | T/C (endpoint: median survival time, dose: 1.08 mg/kg/injection, schedule: Q02DX Z (sc), vehicle: other): 122 % of control | T/C (endpoint: median survival time, dose: 1.08 mg/kg/injection, schedule: Q#A X Z (sc), vehicle: other): 166 % of control | T/C (endpoint: median survival time, dose: 1.5 mg/kg/injection, schedule: Q01DX009 (ip), vehicle: sodium bicarbonate): 155 % of control and 167 % of control | T/C (endpoint: median survival time, dose: 1.8 mg/kg/injection, schedule: Q01DX006 (sc), vehicle: other): 155 % of control | T/C (endpoint: median survival time, dose: 1.8 mg/kg/injection, schedule: Q01DX008 (sc), vehicle: other): 160 % of control | T/C (endpoint: median survival time, dose: 1.8 mg/kg/injection, schedule: Q01DX009 (ip), vehicle: sodium bicarbonate): 166 % of control and 171 % of control | T/C (endpoint: median survival time, dose: 2.89 mg/kg/injection, schedule: Q01DX Z (ip), vehicle: other): 155 % of control | T/C (endpoint: median survival time, dose: 3.0 mg/kg/injection, schedule: Q01DX006 (sc), vehicle: other): 160 % of control and 166 % of control | T/C (endpoint: median survival time, dose: 3.0 mg/kg/injection, schedule: Q01DX008 (sc), vehicle: other): 160 % of control | T/C (endpoint: median survival time, dose: 3.0 mg/kg/injection, schedule: Q01DX010 (sc), vehicle: other): 161 % of control | T/C (endpoint: median survival time, dose: 3.0 mg/kg/injection, schedule: Q01DX012 (ip), vehicle: sodium bicarbonate): 122 % of control | T/C (endpoint: median survival time, dose: 3.0 mg/kg/injection, schedule: Q01DX Z (oral), vehicle: other): 160 % of control | T/C (endpoint: median survival time, dose: 3.0 mg/kg/injection, schedule: Q02DX009 (sc), vehicle: other): 164 % of control | T/C (endpoint: median survival time, dose: 3.0 mg/kg/injection, schedule: Q02DX Z (sc), vehicle: other): 166 % of control | T/C (endpoint: median survival time, dose: 3.02 mg/kg/injection, schedule: Q01DX Z (sc), vehicle: other): 166 % of control | T/C (endpoint: median survival time, dose: 3.64 mg/kg/injection, schedule: Q01DX Z (sc), vehicle: other): 166 % of control | T/C (endpoint: median survival time, dose: 3.9 mg/kg/injection, schedule: Q01DX Z (sc), vehicle: other): 150 % of control | T/C (endpoint: median survival time, dose: 4.0 mg/kg/injection, schedule: Q01DX Z (sc), vehicle: water): 155 % of control | T/C (endpoint: median survival time, dose: 4.7 mg/kg/injection, schedule: Q01DX Z (sc), vehicle: other): 166 % of control | T/C (endpoint: median survival time, dose: 5.0 mg/kg/injection, schedule: Q01DX009 (ip), vehicle: sodium bicarbonate): 166 % of control and 171 % of control | T/C (endpoint: median survival time, dose: 5.0 mg/kg/injection, schedule: Q01DX025 (sc), vehicle: other): 168 % of control | T/C (endpoint: median survival time, dose: 5.0 mg/kg/injection, schedule: Q01DX Z (sc), vehicle: sodium bicarbonate): 100 % of control | T/C (endpoint: median survival time, dose: 6.0 mg/kg/injection, schedule: Q01DX009 (ip), vehicle: sodium bicarbonate): 119 % of control | T/C (endpoint: median survival time, dose: 6.0 mg/kg/injection, schedule: Q01DX Z (oral), vehicle: other): 156 % of control | T/C (endpoint: median survival time, dose: 14.0 mg/kg/injection, schedule: Q## X Z (sc), vehicle: other): 109 % of control and 113 % of control | T/C (endpoint: median survival time, dose: 62.5 mg/kg/injection, schedule: Q01DX001 (sc), vehicle: other): 111 % of control | T/C (endpoint: median survival time, dose: 65.0 mg/kg/injection, schedule: Q04DX005 (sc), vehicle: sodium bicarbonate): 108 % of control | T/C (endpoint: median survival time, dose: 65.0 mg/kg/injection, schedule: Q## X Z (sc), vehicle: other): 152 % of control | T/C (endpoint: median survival time, dose: 100.0 mg/kg/injection, schedule: Q01DX001 (sc), vehicle: sodium bicarbonate): 150 % of control | T/C (endpoint: median survival time, dose: 108.0 mg/kg/injection, schedule: Q## X Z (sc), vehicle: other): 117 % of control | T/C (endpoint: median survival time, dose: 125.0 mg/kg/injection, schedule: Q01DX001 (sc), vehicle: other): 116 % of control
